Measurements reported in PMC9899610 (Cancer Science, 2022).
Values joined by “and” are separate entries in the source; they are usually repeats but may differ in a detail not shown here. Equal values may be shown once. “Also recorded” adds a separate entry of the source. Read-outs that look alike come from different tables or passages of the source.

Assays:
[1] = tested on: patients with advanced solid tumors; settings: global phase I study, 64% Caucasian patients; cited from earlier work
[2] = tested on: cancer cell lines harboring various FGFR gene abnormalities; settings: cited from earlier work
[3] = tested on: advanced solid tumors; assay: Objective tumor response; type: in vivo, human
[4] = clinical; settings: human, plasma, oral; for AUC(0-inf): AUC0–inf; for AUC(0-t): AUC0–last
[5] = tested on: serum Pi; assay: Post hoc hyperphosphatemia assessment with phosphate-binding therapy; type: in vivo, human
[6] = for RAUC0–last / RCmax: ratio
[7] = FGFR‐abnormal patients with GC, All patients (n = 21)
[8] = FGFR‐abnormal patients with GC, FGRF2 CN <10 (n = 10)
[9] = FGFR‐abnormal patients with GC, FGRF2 CN ≥10 (n = 11)
[10] = Futibatinib regimen QD (n = 43)
[11] = Futibatinib regimen TIW (n = 39)
[12] = With FGF/FGFR abnormalities (n = 52)
[13] = Without FGF/FGFR abnormalities or unknown (n = 30)
[14] = 16 mg, Day 1, QD 16 mg, n = 3, mean (standard deviation)
[15] = 16 mg, Week 3, TIW 16 mg, n = 1
[16] = 20 mg, Day 1, QD 20 mg, n = 7, mean (standard deviation)
[17] = 20 mg, Week 3 (day 21), QD 20 mg, n = 2, mean
[18] = 24 mg, Week 3, TIW 24 mg, n = 1
[19] = 40 QD patients treated with phosphate-binding therapy
[20] = Week 3 (day 21), QD 20 mg, n = 2, mean
[21] = Week 3, TIW 36 mg, n = 3, mean (standard deviation)
[22] = Week 3, TIW 56 mg, n = 6, mean (standard deviation)
[23] = Week 3, TIW 80 mg, n = 5, mean (standard deviation)
[24] = Week 3, TIW 120 mg, n = 3, mean (standard deviation)
[25] = Week 3, TIW 160 mg, n = 4, mean (standard deviation)

C=CC(=O)N1CC[C@H](n2nc(C#Cc3cc(OC)cc(OC)c3)c3c(N)ncnc32)C1 [futibatinib]
Dose proportionality of Cmax and AUC [1]: statistically dose‐proportional between 4 mg and 24 mg QD | Susceptibility to resistance development [2]: low susceptibility to resistance development | Best response CR [3, 7]: 0 (0.0) n (%) | Best response NE [3, 7]: 2 (9.5) n (%) | Best response PD [3, 7]: 12 (57.1) n (%) | Best response PR [3, 7]: 4 (19.0) n (%) | Best response SD [3, 7]: 3 (14.3) n (%) | DCR (95% CI) [3, 7]: 33.3 (14.6–57.0) % | ORR (95% CI) [3, 7]: 19.0 (5.4–41.9) % | Best response CR [3, 8]: 0 (0.0) n (%) | Best response NE [3, 8]: 2 (20.0) n (%) | Best response PD [3, 8]: 7 (70.0) n (%) | Best response PR [3, 8]: 0 (0.0) n (%) | Best response SD [3, 8]: 1 (10.0) n (%) | DCR (95% CI) [3, 8]: 10.0 (0.3–44.5) % | ORR (95% CI) [3, 8]: 0 (0–30.8) % | Best response CR [3, 9]: 0 (0.0) n (%) | Best response NE [3, 9]: 0 (0.0) n (%) | Best response PD [3, 9]: 5 (45.5) n (%) | Best response PR [3, 9]: 4 (36.4) n (%) | Best response SD [3, 9]: 2 (18.2) n (%) | DCR (95% CI) [3, 9]: 54.5 (23.4–83.3) % | ORR (95% CI) [3, 9]: 36.4 (10.9–69.2) % | Best response CR [3, 10]: 0 (0.0) n (%) | Best response NE [3, 10]: 4 (9.3) n (%) | Best response PD [3, 10]: 23 (53.5) n (%) | Best response PR [3, 10]: 5 (11.6) n (%) | Best response SD [3, 10]: 11 (25.6) n (%) | DCR (95% CI) [3, 10]: 37.2 (23.0–53.3) % | ORR (95% CI) [3, 10]: 11.6 (3.9–25.1) % | Best response CR [3, 11]: 0 (0.0) n (%) | Best response NE [3, 11]: 5 (12.8) n (%) | Best response PD [3, 11]: 23 (59.0) n (%) | Best response PR [3, 11]: 1 (2.6) n (%) | Best response SD [3, 11]: 10 (25.6) n (%) | DCR (95% CI) [3, 11]: 28.2 (15.0–44.9) % | ORR (95% CI) [3, 11]: 2.6 (0.1–13.5) % | Patients with best response of confirmed PR ([3]; GC patients with FGFR2 CN <10): 0/10 | Patients with best response of confirmed PR ([3]; GC patients with FGFR2 CN ≥10): 4/11 | Best response CR ([3]; Total (n = 82)): 0 (0.0) n (%) | Best response NE ([3]; Total (n = 82)): 9 (11.0) n (%) | Best response PD ([3]; Total (n = 82)): 46 (56.1) n (%) | Best response SD ([3]; Total (n = 82)): 21 n (%) and 21 (25.6) n (%) | DCR (95% CI) ([3]; Total (n = 82)): 32.9 (22.9–44.2) % | ORR (95% CI) ([3]; Total (n = 82)): 7.3 (2.7–15.2) % | Best response CR [3, 12]: 0 (0.0) n (%) | Best response NE [3, 12]: 6 (11.5) n (%) | Best response PD [3, 12]: 27 (51.9) n (%) | Best response PR [3, 12]: 6 (11.5) n (%) | Best response SD [3, 12]: 13 (25.0) n (%) | DCR (95% CI) [3, 12]: 36.5 (23.6–51.0) % | ORR (95% CI) [3, 12]: 11.5 (4.4–23.4) % | Best response CR [3, 13]: 0 (0.0) n (%) | Best response NE [3, 13]: 3 (10.0) n (%) | Best response PD [3, 13]: 19 (63.3) n (%) | Best response PR [3, 13]: 0 (0.0) n (%) | Best response SD [3, 13]: 8 (26.7) n (%) | DCR (95% CI) [3, 13]: 26.7 (12.3–45.9) % | ORR (95% CI) [3, 13]: 0 (0–11.6) % | Patients with confirmed PR ([3]; patients with GC evaluated for response): 4/21 | AUC(0-inf) ([4]; 8 mg, Day 1, TIW 8 mg, n = 1): 390 ng·h/mL | AUC(0-inf) ([4]; 8 mg, Week 3, TIW 8 mg, n = 1): 663 ng·h/mL | AUC(0-t) ([4]; 8 mg, Day 1, TIW 8 mg, n = 1): 387 ng·h/mL | AUC(0-t) ([4]; 8 mg, Week 3, TIW 8 mg, n = 1): 653 ng·h/mL | Cmax ([4]; 8 mg, Day 1, TIW 8 mg, n = 1): 135 ng/mL | Tmax ([4]; 8 mg, Day 1, TIW 8 mg, n = 1, median): 1.87 h | half-life ([4]; 8 mg, t1/2, Day 1, TIW 8 mg, n = 1): 1.58 h | AUC(0-inf) [4, 14]: 1020 ng·h/mL | AUC(0-inf) ([4]; 16 mg, Day 1, TIW 16 mg, n = 1): 1190 ng·h/mL | AUC(0-inf) [4, 15]: 1580 ng·h/mL | AUC(0-t) [4, 14]: 1010 ng·h/mL | AUC(0-t) ([4]; 16 mg, Day 1, TIW 16 mg, n = 1): 1140 ng·h/mL | AUC(0-t) [4, 15]: 1580 ng·h/mL | Cmax [4, 14]: 235 ng/mL | Cmax ([4]; 16 mg, Day 1, TIW 16 mg, n = 1): 189 ng/mL | Cmax [4, 15]: 182 ng/mL | Tmax ([4]; 16 mg, Day 1, QD 16 mg, n = 3, median (minimum, maximum)): 0.95 h | Tmax ([4]; 16 mg, Day 1, TIW 16 mg, n = 1, median): 1.95 h | Tmax ([4]; 16 mg, Week 3, TIW 16 mg, n = 1, median): 2.9 h | half-life ([4]; 16 mg, t1/2, Day 1, QD 16 mg, n = 3, mean (standard deviation)): 2.68 h | half-life ([4]; 16 mg, t1/2, Day 1, TIW 16 mg, n = 1): 5.72 h | AUC(0-inf) [4, 16]: 983 ng·h/mL | AUC(0-inf) [4, 17]: 729 ng·h/mL | AUC(0-t) [4, 16]: 977 ng·h/mL | AUC(0-t) [4, 17]: 727 ng·h/mL | Cmax [4, 16]: 253 ng/mL | half-life ([4]; 20 mg, t1/2, Day 1, QD 20 mg, n = 7, mean (standard deviation)): 2.18 h | half-life ([4]; 20 mg, t1/2, Week 3 (day 21), QD 20 mg, n = 2, mean): 3.05 h | AUC(0-inf) ([4]; 24 mg, Day 1, TIW 24 mg, n = 1): 623 ng·h/mL | AUC(0-inf) [4, 18]: 502 ng·h/mL | AUC(0-t) ([4]; 24 mg, Day 1, TIW 24 mg, n = 1): 621 ng·h/mL | AUC(0-t) [4, 18]: 499 ng·h/mL | Cmax ([4]; 24 mg, Day 1, TIW 24 mg, n = 1): 204 ng/mL | Cmax [4, 18]: 146 ng/mL | Tmax ([4]; 24 mg, Day 1, TIW 24 mg, n = 1, median): 1.95 h | Tmax ([4]; 24 mg, Week 3, TIW 24 mg, n = 1, median): 3.98 h | half-life ([4]; 24 mg, t1/2, Day 1, TIW 24 mg, n = 1): 1.55 h | half-life ([4]; 24 mg, t1/2, Week 3, TIW 24 mg, n = 1): 1.47 h | AUC(0-inf) ([4]; 36 mg, Week 3, TIW 36 mg, n = 3, mean): 2160 ng·h/mL | half-life ([4]; 36 mg, t1/2, Week 3, TIW 36 mg, n = 2, mean): 3.64 h | Futibatinib dose interruption [5, 19]: 30% | Futibatinib dose reduction [5, 19]: 12.5% | Safety concerns regardless of presence or absence of phosphate-binding therapy ([5]; futibatinib QD): No safety concerns were identified | Patients achieving the target serum Pi level ([5]; futibatinib dose reduction after starting phosphate-binding therapy (15 patients)): 86.7% | Hyperphosphatemia events leading to discontinuation of futibatinib ([5]; in vivo): not leading to futibatinib discontinuation; also recorded: none of the hyperphosphatemia events led to discontinuation of futibatinib | Patients achieving the target serum Pi level ([5]; no dose reduction after starting phosphate-binding therapy (10/20)): 50.0% | Cmax ([6]; Day 1, TIW 80 mg, n = 6, mean (standard deviation)): 866 (366) [42.3] ng/ml | t1/2 ([6]; Day 1, TIW 120 mg, n = 3, mean (standard deviation)): 6.64 (1.08) [16.3] ^b h | Dose proportionality of Cmax and AUC ([6]; TIW regimens, single and multiple administrations): dose‐proportional changes in Cmax and AUC0–last | Cmax [6, 20]: 173 (NC) [NC] ng/ml | RAUC0–last [6, 20]: 1.29 (NC) [NC] | RCmax [6, 20]: 0.91 (NC) [NC] | Cmax ([6]; Week 3, TIW 8 mg, n = 1): 167 (NC) [NC] ng/ml | t1/2 ([6]; Week 3, TIW 8 mg, n = 1): 1.74 (NC) [NC] h | RAUC0–last ([6]; Week 3, TIW 8 mg, n = 1): 1.69 (NC) [NC] | RCmax ([6]; Week 3, TIW 8 mg, n = 1): 1.24 (NC) [NC] | t1/2 ([6]; Week 3, TIW 16 mg, n = 1): 5.27 (NC) [NC] h | RAUC0–last ([6]; Week 3, TIW 16 mg, n = 1): 1.39 (NC) [NC] | RCmax ([6]; Week 3, TIW 16 mg, n = 1): 0.96 (NC) [NC] | RAUC0–last ([6]; Week 3, TIW 24 mg, n = 1): 0.80 (NC) [NC] | RCmax ([6]; Week 3, TIW 24 mg, n = 1): 0.72 (NC) [NC] | RAUC0–last [6, 21]: 1.51 (0.47) [30.9] | RCmax [6, 21]: 0.88 (0.44) [49.7] | RAUC0–last [6, 22]: 1.36 (0.44) [32.5] | RCmax [6, 22]: 1.25 (0.36) [28.8] | AUC0–last [6, 23]: 7394 (3731) [50.5] ng·h/ml | RAUC0–last [6, 23]: 1.25 (0.25) [20.0] | RCmax [6, 23]: 0.96 (0.09) [9.1] | RAUC0–last [6, 24]: 1.27 (0.29) [23.1] | RCmax [6, 24]: 1.02 (0.34) [33.2] | RAUC0–last [6, 25]: 1.54 (0.64) [41.6] | RCmax [6, 25]: 1.05 (0.82) [78.2] | Renal excretion of unchanged futibatinib ([6]; in vivo): negligible
